Test results reported in the kinase profiling compilation of Christmann-Franck et al. (2016).

Columns and labels:
Test in all cases: KINOMEscan competition binding
Details in all cases: compound 0.1 µM
[1] = test system: ABL1 (human), P00519 [Q252H]
ABL2 (human) = ABL2 (human) (UniProt P42684)
ACVR1B (human) = ACVR1B (human) (UniProt P36896)
AKT1 (human) = AKT1 (human) (UniProt P31749)
CDK5 (human) = CDK5 (human) (UniProt Q00535)
CDKL5 (human) = CDKL5 (human) (UniProt O76039)
DCLK3 (human) = DCLK3 (human) (UniProt Q9C098)
DYRK2 (human) = DYRK2 (human) (UniProt Q92630)
[2] = test system: EGFR (human), P00533 [746-750 del]
EPHA2 (human) = EPHA2 (human) (UniProt P29317)
FGFR2 (human) = FGFR2 (human) (UniProt P21802)
FGFR4 (human) = FGFR4 (human) (UniProt P22455)
FLT1 (human) = FLT1 (human) (UniProt P17948)
[3] = test system: FLT3 (human), P36888 [D835H]
FRK (human) = FRK (human) (UniProt P42685)
GAK (human) = GAK (human) (UniProt O14976)
GRK4 (human) = GRK4 (human) (UniProt P32298)
IRAK4 (human) = IRAK4 (human) (UniProt Q9NWZ3)
ITK (human) = ITK (human) (UniProt Q08881)
[4] = test system: KIT (human), P10721 [D816V]
MAP3K14 (human) = MAP3K14 (human) (UniProt Q99558)
MAP3K3 (human) = MAP3K3 (human) (UniProt Q99759)
MAP3K7 (human) = MAP3K7 (human) (UniProt O43318)
MATK (human) = MATK (human) (UniProt P42679)
MELK (human) = MELK (human) (UniProt Q14680)
[5] = test system: MET (human), P08581 [Y1235D]
NEK11 (human) = NEK11 (human) (UniProt Q8NG66)
NUAK1 (human) = NUAK1 (human) (UniProt O60285)
PAK1 (human) = PAK1 (human) (UniProt Q13153)
PAK4 (human) = PAK4 (human) (UniProt O96013)
[6] = test system: PIK3CA (human), P42336 [H1047Y]
PIK3CG (human) = PIK3CG (human) (UniProt P48736)
PIM1 (human) = PIM1 (human) (UniProt P11309)
PRKG2 (human) = PRKG2 (human) (UniProt Q13237)
[7] = test system: RET (human), P07949 [M918T]
[8] = test system: RET (human), P07949 [V804L]
RIOK2 (human) = RIOK2 (human) (UniProt Q9BVS4)
SGK1 (human) = SGK1 (human) (UniProt O00141)
SIK1 (human) = SIK1 (human) (UniProt P57059)
TGFBR1 (human) = TGFBR1 (human) (UniProt P36897)
ULK1 (human) = ULK1 (human) (UniProt O75385)

Chain of IRAK4 (human) (Q9NWZ3 whole entry, looked up): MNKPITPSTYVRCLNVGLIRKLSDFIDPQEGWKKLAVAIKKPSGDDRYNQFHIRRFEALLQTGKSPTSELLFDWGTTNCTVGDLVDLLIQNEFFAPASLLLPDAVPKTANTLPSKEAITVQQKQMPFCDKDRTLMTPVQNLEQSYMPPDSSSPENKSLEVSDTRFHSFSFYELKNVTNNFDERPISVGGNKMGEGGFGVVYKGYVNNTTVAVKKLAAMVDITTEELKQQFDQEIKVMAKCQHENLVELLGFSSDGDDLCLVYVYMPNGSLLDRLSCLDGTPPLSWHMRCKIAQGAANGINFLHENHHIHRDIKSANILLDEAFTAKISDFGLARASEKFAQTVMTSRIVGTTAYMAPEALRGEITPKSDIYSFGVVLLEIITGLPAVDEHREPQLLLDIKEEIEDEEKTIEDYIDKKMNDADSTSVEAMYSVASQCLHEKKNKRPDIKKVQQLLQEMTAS
Chain of SIK1 (human) (P57059 whole entry, looked up): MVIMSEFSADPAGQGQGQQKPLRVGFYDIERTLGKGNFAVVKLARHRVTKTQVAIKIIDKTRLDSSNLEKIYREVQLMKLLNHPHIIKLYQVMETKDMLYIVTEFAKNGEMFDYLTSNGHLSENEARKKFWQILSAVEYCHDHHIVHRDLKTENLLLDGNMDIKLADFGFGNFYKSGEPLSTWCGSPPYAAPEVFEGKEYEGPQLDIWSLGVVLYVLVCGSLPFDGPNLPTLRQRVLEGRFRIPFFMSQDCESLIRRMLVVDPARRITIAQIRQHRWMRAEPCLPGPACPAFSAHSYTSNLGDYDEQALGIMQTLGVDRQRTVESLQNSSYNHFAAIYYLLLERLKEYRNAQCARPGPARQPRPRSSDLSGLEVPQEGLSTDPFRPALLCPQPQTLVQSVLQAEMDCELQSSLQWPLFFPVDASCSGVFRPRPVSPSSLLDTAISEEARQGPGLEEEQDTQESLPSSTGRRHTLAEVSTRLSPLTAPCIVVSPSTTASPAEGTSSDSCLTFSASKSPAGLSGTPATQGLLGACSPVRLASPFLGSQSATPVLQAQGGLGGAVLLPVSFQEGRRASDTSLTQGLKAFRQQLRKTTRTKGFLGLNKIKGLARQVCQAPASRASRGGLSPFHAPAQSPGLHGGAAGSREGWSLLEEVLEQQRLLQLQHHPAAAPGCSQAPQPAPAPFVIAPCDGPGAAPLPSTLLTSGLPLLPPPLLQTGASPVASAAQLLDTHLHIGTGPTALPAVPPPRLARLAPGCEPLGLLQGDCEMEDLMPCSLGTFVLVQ
Chain of ACVR1B (human) (P36896 whole entry, looked up): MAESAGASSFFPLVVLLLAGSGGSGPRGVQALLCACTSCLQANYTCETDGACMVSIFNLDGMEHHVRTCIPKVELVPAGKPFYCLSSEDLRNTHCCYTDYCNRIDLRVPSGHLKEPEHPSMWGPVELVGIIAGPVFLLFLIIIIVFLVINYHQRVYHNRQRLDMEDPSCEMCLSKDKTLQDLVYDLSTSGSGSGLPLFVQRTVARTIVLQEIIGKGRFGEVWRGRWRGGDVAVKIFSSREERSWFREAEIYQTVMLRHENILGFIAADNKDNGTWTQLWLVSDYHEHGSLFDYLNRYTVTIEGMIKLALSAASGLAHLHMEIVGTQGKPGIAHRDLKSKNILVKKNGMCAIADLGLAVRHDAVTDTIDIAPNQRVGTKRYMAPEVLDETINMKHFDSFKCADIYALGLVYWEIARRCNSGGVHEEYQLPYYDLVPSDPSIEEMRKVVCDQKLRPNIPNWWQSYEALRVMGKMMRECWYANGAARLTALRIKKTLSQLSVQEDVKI
Chain of KIT (human), P10721 [D816V] (P10721 whole entry D816V, looked up): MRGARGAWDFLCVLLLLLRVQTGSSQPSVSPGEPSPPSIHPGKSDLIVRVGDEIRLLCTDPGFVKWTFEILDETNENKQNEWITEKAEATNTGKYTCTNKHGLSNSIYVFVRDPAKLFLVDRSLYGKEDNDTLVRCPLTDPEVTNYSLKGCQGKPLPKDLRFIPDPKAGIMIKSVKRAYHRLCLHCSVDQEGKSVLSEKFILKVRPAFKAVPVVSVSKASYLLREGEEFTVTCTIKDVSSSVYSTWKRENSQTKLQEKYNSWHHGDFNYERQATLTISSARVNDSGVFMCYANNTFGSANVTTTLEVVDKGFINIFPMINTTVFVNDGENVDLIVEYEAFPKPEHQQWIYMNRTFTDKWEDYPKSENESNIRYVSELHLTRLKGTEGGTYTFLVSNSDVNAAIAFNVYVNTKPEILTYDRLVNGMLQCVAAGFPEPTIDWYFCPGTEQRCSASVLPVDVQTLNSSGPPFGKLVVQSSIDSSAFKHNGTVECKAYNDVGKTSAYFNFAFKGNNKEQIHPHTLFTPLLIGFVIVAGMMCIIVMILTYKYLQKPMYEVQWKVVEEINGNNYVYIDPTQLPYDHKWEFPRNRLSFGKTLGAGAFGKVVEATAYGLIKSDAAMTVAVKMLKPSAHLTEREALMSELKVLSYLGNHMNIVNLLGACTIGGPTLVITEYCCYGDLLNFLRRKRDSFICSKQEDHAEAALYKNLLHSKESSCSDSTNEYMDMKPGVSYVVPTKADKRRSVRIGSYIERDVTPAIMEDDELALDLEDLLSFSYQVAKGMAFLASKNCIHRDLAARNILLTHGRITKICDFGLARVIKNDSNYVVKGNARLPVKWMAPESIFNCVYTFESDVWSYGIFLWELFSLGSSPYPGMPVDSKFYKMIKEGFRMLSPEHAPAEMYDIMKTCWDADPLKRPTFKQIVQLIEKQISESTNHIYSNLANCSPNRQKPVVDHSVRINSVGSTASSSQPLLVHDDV
Chain of GRK4 (human) (P32298 whole entry, looked up): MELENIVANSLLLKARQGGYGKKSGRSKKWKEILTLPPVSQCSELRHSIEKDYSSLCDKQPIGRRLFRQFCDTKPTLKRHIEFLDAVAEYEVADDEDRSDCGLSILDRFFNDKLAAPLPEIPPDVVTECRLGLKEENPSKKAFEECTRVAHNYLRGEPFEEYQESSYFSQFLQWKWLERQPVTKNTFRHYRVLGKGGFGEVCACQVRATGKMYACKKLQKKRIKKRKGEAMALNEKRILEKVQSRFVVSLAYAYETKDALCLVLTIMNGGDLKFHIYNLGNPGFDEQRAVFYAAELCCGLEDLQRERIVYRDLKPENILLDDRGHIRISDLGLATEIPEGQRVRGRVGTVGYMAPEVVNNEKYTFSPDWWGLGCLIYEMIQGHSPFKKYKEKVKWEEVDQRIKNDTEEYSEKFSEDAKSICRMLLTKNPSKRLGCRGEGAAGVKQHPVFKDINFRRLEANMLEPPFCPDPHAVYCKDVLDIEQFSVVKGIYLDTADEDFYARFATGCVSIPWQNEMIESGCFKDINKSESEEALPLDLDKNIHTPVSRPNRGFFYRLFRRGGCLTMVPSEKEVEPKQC
Chain of PRKG2 (human) (Q13237 whole entry, looked up): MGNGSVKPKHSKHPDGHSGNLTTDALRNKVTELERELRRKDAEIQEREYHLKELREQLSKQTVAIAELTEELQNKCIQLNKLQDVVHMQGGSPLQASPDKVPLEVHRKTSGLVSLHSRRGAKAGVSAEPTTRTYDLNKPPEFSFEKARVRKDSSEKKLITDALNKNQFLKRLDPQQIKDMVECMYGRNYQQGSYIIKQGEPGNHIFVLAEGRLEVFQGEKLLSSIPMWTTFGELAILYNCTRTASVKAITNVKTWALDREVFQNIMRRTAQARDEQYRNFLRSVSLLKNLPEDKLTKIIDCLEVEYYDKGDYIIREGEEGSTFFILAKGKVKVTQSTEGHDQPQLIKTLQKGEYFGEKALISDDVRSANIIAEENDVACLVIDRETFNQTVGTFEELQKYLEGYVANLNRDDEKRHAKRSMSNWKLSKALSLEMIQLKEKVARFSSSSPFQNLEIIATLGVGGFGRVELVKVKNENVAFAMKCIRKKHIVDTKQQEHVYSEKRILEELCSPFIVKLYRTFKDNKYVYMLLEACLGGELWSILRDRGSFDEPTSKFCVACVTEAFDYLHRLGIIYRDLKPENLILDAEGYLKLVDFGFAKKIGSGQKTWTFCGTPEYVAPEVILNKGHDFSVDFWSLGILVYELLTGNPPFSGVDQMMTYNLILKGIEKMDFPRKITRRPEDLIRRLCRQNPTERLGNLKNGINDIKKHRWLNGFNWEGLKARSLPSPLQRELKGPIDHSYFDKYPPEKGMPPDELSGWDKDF
Chain of MATK (human) (P42679 whole entry, looked up): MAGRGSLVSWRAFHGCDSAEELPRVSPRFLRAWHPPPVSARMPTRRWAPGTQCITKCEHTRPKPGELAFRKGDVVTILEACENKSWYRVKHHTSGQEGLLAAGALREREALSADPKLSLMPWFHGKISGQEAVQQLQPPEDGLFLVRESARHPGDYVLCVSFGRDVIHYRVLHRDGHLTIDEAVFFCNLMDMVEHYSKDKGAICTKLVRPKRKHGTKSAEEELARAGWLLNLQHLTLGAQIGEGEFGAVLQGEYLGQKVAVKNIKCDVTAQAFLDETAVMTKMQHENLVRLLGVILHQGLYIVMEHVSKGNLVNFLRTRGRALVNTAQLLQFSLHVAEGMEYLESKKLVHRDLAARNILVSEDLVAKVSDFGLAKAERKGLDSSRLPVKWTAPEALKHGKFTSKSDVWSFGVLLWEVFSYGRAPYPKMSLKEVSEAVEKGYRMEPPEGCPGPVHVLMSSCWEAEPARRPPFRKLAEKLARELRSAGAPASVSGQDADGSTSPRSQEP
Chain of PIM1 (human) (P11309 whole entry, looked up): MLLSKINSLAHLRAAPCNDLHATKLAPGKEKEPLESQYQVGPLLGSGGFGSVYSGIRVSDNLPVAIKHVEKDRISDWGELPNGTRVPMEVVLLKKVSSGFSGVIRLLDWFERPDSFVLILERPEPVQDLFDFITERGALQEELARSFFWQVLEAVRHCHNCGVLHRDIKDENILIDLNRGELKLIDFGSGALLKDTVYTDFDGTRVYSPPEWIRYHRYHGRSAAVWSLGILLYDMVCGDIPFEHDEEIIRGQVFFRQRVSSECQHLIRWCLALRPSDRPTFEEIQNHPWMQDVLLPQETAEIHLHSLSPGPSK

CCc1ccc(C(=O)Nc2cc(CN3CCN(C)CC3)cc(C(F)(F)F)c2)cc1C#Cc1cnc2ccnn2c1 showed a kinase still bound, per cent of control [1] of 100%, a kinase still bound, per cent of control (ABL2 (human)) of 39% and a kinase still bound, per cent of control (ACVR1B (human)) of 100%. It also gave a kinase still bound, per cent of control (AKT1 (human)) of 81%, a kinase still bound, per cent of control (CDK5 (human)) of 100% and a kinase still bound, per cent of control (CDKL5 (human)) of 100%. It also gave a kinase still bound, per cent of control (DCLK3 (human)) of 100%, a kinase still bound, per cent of control (DYRK2 (human)) of 86% and a kinase still bound, per cent of control [2] of 100%. It also gave a kinase still bound, per cent of control (EPHA2 (human)) of 80%, a kinase still bound, per cent of control (FGFR2 (human)) of 100% and a kinase still bound, per cent of control (FGFR4 (human)) of 86%. The kinase still bound, per cent of control (FLT1 (human)) was 84%, the kinase still bound, per cent of control [3] was 83% and the kinase still bound, per cent of control (FRK (human)) was 47%. It also gave a kinase still bound, per cent of control (GAK (human)) of 95%, a kinase still bound, per cent of control (GRK4 (human)) of 97% and a kinase still bound, per cent of control (IRAK4 (human)) of 100%. The kinase still bound, per cent of control (ITK (human)) was 100%, the kinase still bound, per cent of control [4] was 81% and the kinase still bound, per cent of control (MAP3K14 (human)) was 85%. For the same compound, the kinase still bound, per cent of control (MAP3K3 (human)) was 100%, the kinase still bound, per cent of control (MAP3K7 (human)) was 100% and the kinase still bound, per cent of control (MATK (human)) was 100%. For the same compound, the kinase still bound, per cent of control (MELK (human)) was 95%, the kinase still bound, per cent of control [5] was 55% and the kinase still bound, per cent of control (NEK11 (human)) was 91%. It also gave a kinase still bound, per cent of control (NUAK1 (human)) of 100%, a kinase still bound, per cent of control (PAK1 (human)) of 75% and a kinase still bound, per cent of control (PAK4 (human)) of 80%. The kinase still bound, per cent of control [6] was 76%, the kinase still bound, per cent of control (PIK3CG (human)) was 100% and the kinase still bound, per cent of control (PIM1 (human)) was 80%. For the same compound, the kinase still bound, per cent of control (PRKG2 (human)) was 100%, the kinase still bound, per cent of control [7] was 46% and the kinase still bound, per cent of control [8] was 86%. The kinase still bound, per cent of control (RIOK2 (human)) was 100%, the kinase still bound, per cent of control (SGK1 (human)) was 93% and the kinase still bound, per cent of control (SIK1 (human)) was 100%. The kinase still bound, per cent of control (TGFBR1 (human)) was 100% and the kinase still bound, per cent of control (ULK1 (human)) was 100%.
